Read-outs that look alike come from different tables or passages of the source.
Legend:
Type in all cases: cell-based
[1] = test system: interferon-stimulated responsive elements (ISRE); assay: Activation of ISRE promoter elements by conditioned media from PBMC (HEK-ISREluc); conditions: Homo sapiens, read-out: HEK-ISRE luc (LEC)
Procedure: The potential of compounds to induce IFN-I was also evaluated by measuring the activation of interferon-stimulated responsive elements (ISRE) by conditioned media from PBMC. The ISRE element of sequence […] is highly responsive to the STAT1-STAT2-IRF9 transcription factor, activated upon binding of IFN-I to their receptor IFNAR (Clontech, PT3372-5W). The plasmid pISRE-Luc from Clontech (ref. 631913) contains 5 copies of this ISRE element, followed by the firefly luciferase ORF. A HEK293 cell line stably transfected with pISRE-Luc (HEK-ISREluc) was established to profile of the conditioned PBMC cell culture media.
Briefly, PBMCs were prepared from buffy coats of at least two donors using a standard Ficoll centrifugation protocol. Isolated PBMCs were resuspended in RPMI medium supplemented with 10% human AB serum and 2×10^5 cells/well were dispensed into 384-well plates containing compounds (70 μL total volume). After overnight incubation, 10 μL of supernatant was transferred to 384-well plates containing 5×10^3 HEK-ISREluc cells/well in 30 μL (plated the day before). Following 24 hours of incubation, activation of the ISRE elements was measured by assaying luciferase activity using 40 μL/well Steady Lite Plus substrate (Perkin Elmer) and measured with ViewLux ultraHTS microplate imager (Perkin Elmer). The stimulating activity of each compound on the HEK-ISREluc cells was reported as LEC value, defined as the compound concentration applied to the PBMCs resulting in a luciferase activity at least two fold above the standard deviation of the assay. The LEC in turn indicates the degree of ISRE activation on transfer of a defined amount of PBMC culture medium. Recombinant interferon α-2a (Roferon-A) was used as a standard control compound.

human TLR8 = molecular target: T1, human TLR8 (Homo sapiens, UniProt Q9NR97); assay: TLR8 cellular reporter assay (HEK293, NFκB-luc); conditions: HEK293 transiently transfected with TLR8 and NFκB-luc; 6 hours incubation; lowest effective concentration
T1 construct: expressed in transfected cells; host or cells: HEK293
T1 sequence (Q9NR97 27-1041): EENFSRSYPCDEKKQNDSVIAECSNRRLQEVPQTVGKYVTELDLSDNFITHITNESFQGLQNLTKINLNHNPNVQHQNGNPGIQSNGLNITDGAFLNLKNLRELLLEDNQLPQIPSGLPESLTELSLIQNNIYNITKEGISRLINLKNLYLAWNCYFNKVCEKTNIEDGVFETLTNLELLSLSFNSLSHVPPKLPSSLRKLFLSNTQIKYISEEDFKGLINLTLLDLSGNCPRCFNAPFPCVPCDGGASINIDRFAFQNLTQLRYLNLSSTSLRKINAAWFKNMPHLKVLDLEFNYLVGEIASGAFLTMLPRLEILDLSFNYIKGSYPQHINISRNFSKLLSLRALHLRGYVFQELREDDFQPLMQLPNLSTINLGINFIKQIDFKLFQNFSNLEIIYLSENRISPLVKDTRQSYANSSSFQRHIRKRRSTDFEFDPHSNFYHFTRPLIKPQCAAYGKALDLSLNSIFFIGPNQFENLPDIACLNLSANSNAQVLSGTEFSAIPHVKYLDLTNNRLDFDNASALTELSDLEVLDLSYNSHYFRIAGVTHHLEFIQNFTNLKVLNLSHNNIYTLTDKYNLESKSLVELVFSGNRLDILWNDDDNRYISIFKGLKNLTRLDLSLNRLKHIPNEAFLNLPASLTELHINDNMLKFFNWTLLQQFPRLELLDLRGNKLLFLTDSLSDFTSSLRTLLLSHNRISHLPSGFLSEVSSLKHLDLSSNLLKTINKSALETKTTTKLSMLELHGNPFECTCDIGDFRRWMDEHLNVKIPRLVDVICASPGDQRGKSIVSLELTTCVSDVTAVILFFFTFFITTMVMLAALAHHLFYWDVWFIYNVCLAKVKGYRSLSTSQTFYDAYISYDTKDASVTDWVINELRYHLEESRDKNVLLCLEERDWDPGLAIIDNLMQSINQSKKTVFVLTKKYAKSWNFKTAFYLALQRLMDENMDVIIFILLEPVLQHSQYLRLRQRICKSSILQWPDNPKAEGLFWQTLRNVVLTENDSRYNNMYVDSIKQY
Procedure: (§1) The ability of compounds to activate human TLR7 and/or TLR8 was assessed in a cellular reporter assay using HEK293 cells transiently transfected with a TLR7 or TLR8 expression vector and NFκB-luc reporter construct.
(§2) Briefly, HEK293 cells were grown in culture medium (DMEM supplemented with 10% FCS and 2 mM Glutamine). For transfection of cells in 10 cm dishes, cells were detached with Trypsin-EDTA, transfected with a mix of CMV-TLR7 or TLR8 plasmid (750 ng), NFκB-luc plasmid (375 ng) and a transfection reagent and incubated overnight at 37° C. in a humidified 5% CO2 atmosphere. […] Thirty microliters of cells were then dispensed into each well in 384-well plates, where 10 μL of compound in 4% DMSO was already present. Following 6 hours incubation at 37° C., 5% CO2, the luciferase activity was determined by adding 15 μL of Steady Lite Plus substrate (Perkin Elmer) to each well and readout performed on a ViewLux ultraHTS microplate imager (Perkin Elmer). Dose response curves were generated from measurements performed in quadruplicates.

human TLR7 = molecular target: T2, human TLR7 (Homo sapiens, UniProt Q9NYK1); assay: TLR7 cellular reporter assay (HEK293, NFκB-luc); conditions: HEK293 transiently transfected with TLR7 and NFκB-luc; 6 hours incubation; lowest effective concentration
T2 construct: expressed in transfected cells; host or cells: HEK293
T2 sequence (Q9NYK1 27-1049): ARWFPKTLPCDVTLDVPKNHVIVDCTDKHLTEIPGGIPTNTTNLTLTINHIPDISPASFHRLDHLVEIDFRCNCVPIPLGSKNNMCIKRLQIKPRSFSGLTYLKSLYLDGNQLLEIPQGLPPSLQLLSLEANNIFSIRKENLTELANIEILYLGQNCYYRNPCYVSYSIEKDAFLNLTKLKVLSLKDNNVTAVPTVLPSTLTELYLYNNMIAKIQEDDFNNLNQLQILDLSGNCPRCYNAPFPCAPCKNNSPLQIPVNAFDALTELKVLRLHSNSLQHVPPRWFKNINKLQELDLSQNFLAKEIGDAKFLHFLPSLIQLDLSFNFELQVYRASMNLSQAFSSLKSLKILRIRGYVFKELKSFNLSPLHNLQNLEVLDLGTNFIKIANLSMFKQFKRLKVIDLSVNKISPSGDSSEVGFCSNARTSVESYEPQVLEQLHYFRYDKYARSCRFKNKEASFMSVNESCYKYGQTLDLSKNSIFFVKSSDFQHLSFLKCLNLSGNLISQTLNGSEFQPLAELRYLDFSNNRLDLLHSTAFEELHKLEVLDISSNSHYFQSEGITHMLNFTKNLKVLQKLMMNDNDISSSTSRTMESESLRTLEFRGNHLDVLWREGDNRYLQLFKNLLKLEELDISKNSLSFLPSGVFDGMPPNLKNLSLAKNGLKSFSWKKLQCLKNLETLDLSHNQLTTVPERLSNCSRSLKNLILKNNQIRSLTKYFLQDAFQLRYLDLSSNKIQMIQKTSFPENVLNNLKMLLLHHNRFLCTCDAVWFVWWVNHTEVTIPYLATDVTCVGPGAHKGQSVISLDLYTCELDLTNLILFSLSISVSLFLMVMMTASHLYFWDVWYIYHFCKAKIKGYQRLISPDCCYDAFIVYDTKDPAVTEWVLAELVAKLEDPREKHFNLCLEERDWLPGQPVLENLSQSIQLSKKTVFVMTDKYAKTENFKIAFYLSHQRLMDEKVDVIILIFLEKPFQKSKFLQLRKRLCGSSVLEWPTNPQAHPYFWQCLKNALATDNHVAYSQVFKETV
Procedure: as §1, §2

[2] = PBMC conditioned medium transferred to HEK-ISREluc cells, 24 hours, lowest effective concentration

| SMILES | minimal effective concentration [1, 2] [µM] | Human TLR 8 (LEC) (human TLR8) [µM] | Human TLR 7 (LEC) (human TLR7) [µM] | minimal effective concentration ([1]; PBMC, 24 h) [µM] |
| --- | --- | --- | --- | --- |
| CCCCNc1nc(N)nnc1OCc1ccccc1OC [Compound 19] | 0.43 | 0.64 | – | – |
| CCCC[C@@H](CCO)Nc1nc(N)nnc1OC [Compound 12] | 2.72 | – | 7.8 | – |
| CCCCNc1nc(N)nnc1OCc1cccnc1 [Compound 21] | – | – | 1.71 | 0.14 |
| CCCCNc1nc(N)nnc1OCc1ccccc1 [Compound 15] | 1.85 | 1.93 | 2.94 | – |
| CCCCNc1nc(N)nnc1OCCCN(C)C [Compound 24] | – | 0.1 | >25 | 0.17 |
| CCCCNc1nc(N)nnc1OCc1ccccc1F [Compound 20] | – | – | 0.75 | 0.54 |
| CCCCNc1nc(N)nnc1OCc1ccccn1 [Compound 23] | 0.14 | – | 0.17 | – |
| CCCCNc1nc(N)nnc1OC [Compound 17] | 1.02 | – | 17.49 | – |
| CCCCNc1nc(N)nnc1OC(C)C [Compound 18] | 0.53 | – | 8.27 | – |
| CCCCNc1nc(N)nnc1OCCCc1ccc(OC)cc1 [Compound 16] | 0.14 | 0.81 | 0.38 | – |
| CCCCNc1nc(N)nnc1OCCOC [Compound 22] | – | 1.0 | 4.75 | 0.41 |
| CCC[C@@H](CCO)Nc1nc(N)nnc1OCc1nccc(OC)c1OC [Compound 8] | 0.014 | 0.56 | 0.24 | – |
